From patent US6528514B1, “IgE antibody production inhibitors and autoimmune diseases inhibitors” (Welfide Corporation, priority 1998, dated 2003)

Experiments:
[1] = system: anti-type II collagen antibody; assay: Assay of anti-type II collagen antibody in serum of HgCl2-administered BN rats; format: in vivo, rat; details: male BN rats, Compound 1 30 mg/kg orally every day, serum day 12, 14, 16
Method: (§1) HgCl2, 1 mg/mL/kg, was administered to male BN rats (8 animals per group) subcutaneously at the back every other day from day 1 to day 10, for a total of 5 times (HgCl2 administration group). Separately, in parallel with the administration of HgCl2 in the same manner as above, Compound 1 was administered orally in a daily dose of 30 mg/kg every day (Compound 1 administration group). In the normal group, PBS was administered. On day 12, day 14 and day 16, the blood was drawn from the tail vein and centrifuged to separate the serum. (2-1) Assay of anti-ssDNA antibody
Type II collagen (Collagen Technology Forum, 64-50823) was diluted to 50 μg/mL with 0.02% NaN3/PBS and an ELISA plate was coated with 50 μL/well at 4° C. overnight. After washing, 50 μL of the test sample diluted 50-fold with 1% BSA/PBS was added to the each well and the plate was incubated at room temperature for 2 hours. As the background, wells not supplied with the test sample were provided. Amount of bound antibody was measured as the change of absorbance at 490 nm to 650 nm with the combination of peroxidase-labeled anti-rat IgE(Fc) monoclonal antibody and o-phenylendiamine (1 mg/mL) and H2O2 (as the control, the OD on day 1 was used). The amount of anti-type II collagen antibody was calculated as the difference (ΔOD) from that of the background.
The ordinate represents the difference in absorbance (ΔOD). […]

IgE antibody = assay: Determination of serum IgE antibody titer in HgCl2-administered BN rats (ELISA); format: in vivo, rat; details: for inhibition at 30 mg/kg/day: Rattus norvegicus, po, read-out: Inhibition rate; for Serum IgE antibody titer / inhibition of IgE antibody titer increased by HgCl2 (in words): male BN rats; for Serum IgE antibody titer: HgCl2 1 mg/mL/kg s.c., compound 30 mg/kg/day orally for 6 days, serum on day 7, *p < 0.05
Method: HgCl2, 1 mg/mL/kg, was administered to male BN rats (8 animals per group) subcutaneously at the back (HgCl2 group). Separately, to male BN rats (8 animals per group) similarly administered with HgCl2, Compounds 1˜4 were administered orally in a daily dose of 30 mg/kg for 6 consecutive days beginning the HgCl2 administration day (Compound 1 administration group, Compound 2 administration group, Compound 3 administration group, and Compound 4 administration group, respectively). Here, Compound 3 is 2-[5-amino-2-(3-methoxyphenyl)-6-oxo-1,6-dihydro-1-pyrimidinyl]-N-[1-[(benzoxazol-2-yl)carbonyl]-2-phenylethyl]acetamide and Compound 4 is 2-[5-amino-2-(3-methoxyphenyl)-6-oxo-1,6-dihydro-1-pyrimidin-yl]-N-[1-[[5-(methoxycarbonyl)benzoxazol-2-yl]carbonyl]-2-phenylethyl]acetamide. On day 7 following HgCl2 administration, the animals were sacrificed with CO2 gas, thoracotomized, and the cardiac blood was collected and centrifuged to recover the serum. The serum samples were stored at −20° C. and the IgE antibody titer was determined by the following procedure.
Anti-rat IgE monoclonal antibody [MCARE-01] [manufactured by Biochemical Industry Co., 01404] was diluted to 5 μg/mL with 0.02% NaN3/PBS and an ELISA plate was coated with 50 μL of the solution at 4° C. overnight. After each well was washed, blocking was performed with 3% skim milk/TBS at room temperature for at least 1 hour. After another washing, 50 μL of the test sample diluted 200-fold with 1% BSA/TBS was added to each well, followed by 2 hours of incubation at room temperature. Each well was washed and 50 μL of ALP-labeled anti-rat κ & λ-chain monoclonal antibody (Sigma, lot 113H4804) diluted 5000-fold with 1% BSA/TBS was added. The plate was incubated at room temperature for 2 hours. Each well was washed again, and 50 μL/well of p-nitrophenyl phosphate (in 0.1 M diethanolamine, 1 mg/mL, pH 9.8) was added as the substrate solution. After color development, the reaction was stopped with an equal amount of 0.5 M NaOH and the OD was measured at the wavelength of 405 nm. As the standard rat IgE, Chemicon's rat IgE was used.

human heart chymase = biological target: T1, human heart chymase (Homo sapiens, UniProt P23946); assay: human heart chymase inhibitory activity test (amidase inhibitory activity); format: biochemical; details: 5 nM chymase; substrate succinyl-alanyl-alanyl-prolyl-phenylalanine-p-nitroanilide; pH 7.5
T1 sequence (P23946 22-247): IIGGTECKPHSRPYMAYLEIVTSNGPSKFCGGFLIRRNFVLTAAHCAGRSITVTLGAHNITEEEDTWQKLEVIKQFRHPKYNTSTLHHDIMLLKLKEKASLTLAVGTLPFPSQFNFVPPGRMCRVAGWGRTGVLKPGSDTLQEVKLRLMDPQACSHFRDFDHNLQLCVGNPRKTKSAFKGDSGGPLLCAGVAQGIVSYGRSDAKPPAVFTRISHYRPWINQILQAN
Method: The human heart chymase-inhibitory activity of the obtained Compound 1 was assayed in terms of amidase inhibitory activity of human heart chymase and the efficacy of the compound was evaluated as follows.
The inhibitory activity was determined from the change in residual activity fraction of 5 nM chymase using a concentration series (<×1,<×10,<×100 equivalents) of Compound 1 in the presence of the synthetic substrate succinyl-alanyl-alanyl-prolyl-phenylalanine-p-nitroanilide at a final concentration of 2.5 mmol. Analysis of inhibitory potency was made by the least square regression of the Easson-Stedman plot utilizing bimolecular equilibrium reaction linearization (Proc. Roy. Soc. B., 121, 141, 1936). The apparent inhibition constant (Kiapp) obtained by this analysis and the inhibition constant (Ki) calculated from the final concentration of the substrate in the reaction mixture and the Km value measured separately were used to evaluate the inhibitory activity. For determination of the initial velocity of the enzymatic reaction, the amount of p-nitroaniline produced by hydrolysis of the substrate was spectrometrically estimated from the increase in the absorbance at 405 nm after subtraction of the absorbance at 650 nm. […]
From the absorbance reading immediately after addition of the enzyme, the increase in absorbance was recorded at exactly equal time-intervals as a progressive curve.

male BN rats = assay: Arthritis assay in HgCl2-administered BN rats (hindpaw volume, severity score); format: in vivo, rat; details: HgCl2 s.c. every other day day 1 to day 10, Compound 1 orally every day
Method: HgCl2, 1 mg/mL/kg, was administered to male BN rats (8 animals per group) subcutaneously at the back every other day from day 1 to day 10, for a total of 5 times (HgCl2 administration group). Separately, in parallel with the administration of HgCl2, Compound 1 was administered orally in a daily dose of […] every day (Compound 1 administration group). In the normal group, PBS in lieu of HgCl2 was administered. On day 1, day 12, day 14, day 16 and day 18, the right and left hindpaw volumes were measured and the severity of arthritis was scored.
With regard to right and left hindpaw volumes, the left hindpaw and right hindpaw of each rat were respectively immersed in water and the increase in volume of the water was measured to calculate the rate of increase (%).
“LEFT” represents the left hindpaw volume and “RIGHT” represents the right hindpaw volume. The ordinate represents the rate of volume increase (%). The abscissa represents the number of days from the first day of testing to the measurement day. […]
The arthritis severity was scored for each limb according to the following criteria and the total of scores for the four limbs (maximum score=16) and the average of the scores for 8 animals per group were calculated. […]

anti-ssDNA antibody = assay: Assay of anti-ssDNA antibody in serum of HgCl2-administered BN rats; format: in vivo, rat; details: male BN rats, Compound 1 30 mg/kg orally every day, serum day 12, 14, 16
Method: as §1
A 96-well plate was coated with 50 μL/well of ε-poly-L-lysine having a molecular weight of 2000˜4000 (Wako Pure Chemical Industries, ECN 6644, 25 μg/mL in PBS) at room temperature for 3 hours. […]
After washing, 50 μL of the test sample diluted 50-fold with 1% BSA/PBS was added to each well, and the plate was incubated at room temperature for 2 hours. […] Amount of bound antibody was measured as the change of absorbance at 490 nm to 650 nm with the combination of peroxidase-labeled anti-rat IgE(Fc) monoclonal antibody and o-phenylendiamine (1mg/mL) and H2O2 (as the control, the OD on day 1 was used). The amount of anti-ssDNA antibody was calculated as the difference (ΔOD) from that of the background.
The ordinate represents the difference in absorbance (ΔOD) . […]

[2] = inhibition of serum IgE antibody titer vs HgCl2 group, 30 mg/kg/day orally for 6 days, day 7

| Structure (SMILES) | anti-type II collagen antibody titer (ΔOD, FIG. 4) [1] | inhibition at 30 mg/kg/day (IgE antibody; [2]) [%] | Serum IgE antibody titer (IgE antibody) | inhibition of IgE antibody titer increased by HgCl2 (in words) (IgE antibody; 30 mg/kg/day orally for 6 days) | Ki (human heart chymase) [µM] | rate of increase in left and right hindpaw volumes (FIG. 1) (male BN rats; measured up to day 18) | arthritis severity score (FIG. 2) (male BN rats; total of four limbs, maximum 16) | amount of anti-ssDNA antibody (ΔOD, FIG. 3) (anti-ssDNA antibody) | Inhibition rate (IgE antibody; [2]) [%] |
| --- | --- | --- | --- | --- | --- | --- | --- | --- | --- |
| COC(=O)c1ccc2oc(C(=O)C(Cc3ccccc3)NC(=O)Cn3c(-c4ccc(F)cc4)ncc(N)c3=O)nc2c1 (centres unmarked) [Compound 1, 2-[5-amino-2-(4-fluorophenyl)-6-oxo-1,6-dihydro-1-pyrimidinyl]-N-[1-[[5-(methoxycarbonyl)benzoxazol-2-yl]carbonyl]-2-phenylethyl]acetamide] | reduced | 27.8 | 62.24 ± 5.08* | significantly inhibited | 0.023 | significantly suppressed | significantly reduced | significantly reduced |  |
| Nc1cnc(-c2cccc(Cl)c2)n(CC(=O)NC(Cc2ccccc2)C(=O)C(F)(F)C(=O)NCc2ccccc2)c1=O (centres unmarked) [Compound 2, 2-[5-amino-2-(3-chlorophenyl)-1 6-dihydro-6-oxo-1-pyrimidinyl]-N-[1-benzyl-3-[N-(benzyl)carbamoyl]-3,3-difluoro-2-oxopropyl]acetamide] |  |  | 67 ± 7.57 µg/mL | tendency to inhibit |  |  |  |  | 22.3 |
| COc1cccc(-c2ncc(N)c(=O)n2CC(=O)NC(Cc2ccccc2)C(=O)c2nc3ccccc3o2)c1 (centres unmarked) [Compound 3, 2-[5-amino-2-(3-methoxyphenyl)-6-oxo-1,6-dihydro-1-pyrimidinyl]-N-[1-[(benzoxazol-2-yl)carbonyl]-2-phenylethyl]acetamide] |  | 24.3 | 65.25 ± 6.71* | significantly inhibited |  |  |  |  |  |
| COC(=O)c1ccc2oc(C(=O)C(Cc3ccccc3)NC(=O)Cn3c(-c4cccc(OC)c4)ncc(N)c3=O)nc2c1 (centres unmarked) [Compound 4, 2-[5-amino-2-(3-methoxyphenyl)-6-oxo-1,6-dihydro-1-pyrimidin-yl]-N-[1-[[5-(methoxycarbonyl)benzoxazol-2-yl]carbonyl]-2-phenylethyl]acetamide] |  | 23.4 | 66.10 ± 8.46* | significantly inhibited |  |  |  |  |  |
